Source: article PMC8348996, “pH-sensitive dual drug loaded janus nanoparticles by oral delivery for multimodal analgesia” (Journal of Nanobiotechnology, 2021)
Like-named read-outs stand apart in the source and are kept apart here.

Tests used:
[1] = humans and animals; cited from earlier work
[2] = test system: Caco-2/HT29-MTX/Raji monolayers; test: Trans-monolayer transport; format: in vitro ADME; conditions: Caco2-HT29/MTX-Raji cell model, AP to BL, 4 h
Procedure: (§1) Caco-2, Caco-2/HT29-MTX (7/3), and Caco-2/HT29-MTX/Raji cell models were established for the trans-monolayer transport study, as previously described. The assay was carried out from the AP side (pH 6.5) to the BL side (pH 7.4) using HBSS-HEPES buffer. […] At 0, 0.5, 1, 2, and 4 h, a certain amount of sample was taken from the basolateral compartment, and the same volume of HBSS-HEPES buffer was added.

[3] = test system: Caco-2/HT29-MTX monolayers; test: Trans-monolayer transport; format: in vitro ADME; conditions: Caco2-HT29/MTX cell model, AP to BL, 4 h
Procedure: as §1

[4] = test system: Caco-2 monolayers; test: Trans-monolayer transport; format: in vitro ADME; conditions: Caco-2 cell model, AP to BL, 4 h
Procedure: as §1

[5] = in vivo; parameters: species or system SD rats
Procedure: SD rats fasted but drank water freely for 24 h before administration. The dosage of JNP group was 50 µg·kg ^−1 (calculated using αCT), and the other groups were converted according to the ratio of their drug loading to αCT. After intragastric administration, blood samples were collected at 0.25, 0.5, 1, 4, 8, 12, and 24 h. […] PKSolver software (V2.0, China Pharmaceutical University, China) was used to process the data, compare the blood PK parameters of each group after administration, and generate the drug concentration–time curve.

[6] = Lymphatic transport in mesenteric lymph-cannulated rats; format: in vivo, SD rats
Procedure: The methods of mesenteric lymphatic intubation were based on previous studies. Briefly, SD rats (300–350 g) were given 2 mL peanut oil via gavage 1 h before administration to induce lymphoid production. One hour later, the animals were anesthetized via intraperitoneal injection of 50 mg·kg^−1 pentobarbital sodium. The rats were placed in the supine position on the ventral side and their limbs were fixed. A midline abdominal incision (approximately 4 cm long) was made at 2/3 of the line connecting the xiphoid and pubic symphysis. […] The trunk of the mesenteric lymphatic vessels (approximately 1 cm) was then separated. A 4-mm PE-25 pipe with a PE-50 hose was connected, the joint of each pipe was fully fixed, and the pipe was filled with 1% EDTA-2Na. […] A small incision was made in the mesenteric lymphatic vessel, and the PE-25 tube end was intubated. When the lymphatic fluid completely filled the tube and drained smoothly, the intubation site was fixed. After resuscitation, the rats were allowed to drink 5% glucose solution freely and recover overnight.

[7] = SPIP, n = 3
Procedure: SPIP was performed to determine the absorption and enterocytic uptake of the nanoparticles. The abdominal cavity of SD rats were opened along the midline of the abdomen to expose the intestinal tissue. The jejunum, ileum, duodenum, and colon segments were measured, and incisions were made at both ends of these segments. Both ends of the incision were intubated and fixed using ligation. The wounds were covered with an absorbent cotton soaked in normal saline and maintained at 37 °C. […] After 60 min, the jejunum, ileum, duodenum, and colon were dehydrated to create frozen Sects. (10 μm). These sections were observed using CLSM, and the fluorescence intensity of each section was quantified.

[8] = target: T1, trypsin (Sus scrofa, UniProt P00761); test: Stability in SIF containing 0.2% trypsin (residual drug content); format: in vitro ADME; conditions: SIF with 0.2% trypsin, 37 °C, first hour
T1 construct: purchased Gibco Invitrogen Co. (Carlsbad, USA)
Procedure: The effect of trypsin on the stability of αCT/Res-JNPs was also evaluated. αCT/Res-JNPs were centrifuged at 20,000 rpm at 4 °C for 30 min, and then resuspended in SIF. The control group was treated with αCT solution and Res solution. SIFs and trypsin (0.2%, w/v) were mixed at 37 °C for 2 h. At predetermined time points (15, 30, 60, and 120 min), HCl solution (0.1 M) was added to terminate the trypsin activity. Subsequently, dichloromethane was added to dissolve the organic phase contained in the JNP solution. The pH of the solution was then adjusted to 4.0 using hydrochloric acid to dissolve the internal aqueous phase of the JNP. Subsequently, samples were collected, and the contents of residual αCT and Res in the JNP samples were analyzed via HPLC.

[9] = In vitro release behavior by dialysis in SGF (pH 1.2) and PBS (pH 7.4); format: physicochemical
Procedure: The release behavior of αCT and Res in vitro was investigated through dialysis. […] The release medium was SGJ (pH 1.2) containing 2% sodium dodecyl sulfate (w/v) and 30 mL PBS (pH 7.4). The release behavior of drugs from JNP was studied under the conditions of 37 ± 0.5 °C and a rotating speed of 100 rpm. At fixed time points (0, 0.25, 0.5, 0.75, 1.0, 1.5, and 2.0 h in SGJ; 0, 0.25, 0.5, 1.0, 2,0, 4.0, 6.0, 8.0, 10.0, 12.0, and 24.0 h in PBS), 1 mL of release medium was removed, and a blank release medium with the same volume and temperature was supplemented. The samples were filtered through a 0.22-μm microporous membrane, and the supernatant was obtained after high-speed centrifugation. The αCT and Res content were determined using HPLC. The cumulative release percentage was calculated, and a release curve was obtained. The formula for cumulative drug release is shown in the following equation, where Ct is the content of two drugs at each sampling point, V0 is the volume of the release medium, V is the sampling volume, and M0 is the initial dosage:3 Cumulative release%=Ct×V0+∑n=1t-1C×V/M0×100%

[10] = test system: Caco-2 cells; test: Mechanism of cell uptake with specific endocytosis inhibitors (flow cytometry); format: cell-based; conditions: inhibitor 0.5 h, then FITC-αCT-JNP or FITC-αCT/Res-JNP 2 h; uptake without inhibitor = 100%
Procedure: The mechanism of cell uptake was also investigated. Caco-2 cells in the logarithmic growth phase were seeded in 6-well plates at 3 × 10^5 cells/well and incubated for 48 h. Chlorpromazine (10 μg/mL), genistein (54 μg/mL), amiloride (12 μg/mL), and nocodazole (300 μg/mL) were added to the individual wells as inhibitors and were incubated for 0.5 h. FITC-αCT-JNP and FITC-αCT/Res-JNP were then added and the wells were incubated for another 2 h. The cells were then collected using trypsin and centrifuged at 1000 rpm for 5 min. Cells without any inhibitors were used as controls. Fluorescence intensity was detected using flow cytometry (FACSJazz, BD, USA).

[11] = test system: Caco-2 cells; test: Cellular uptake of FITC-αCT observed by CLSM; format: cell-based; conditions: 6 h incubation, 1:20 dilution
Procedure: (§2) Cell culture was carried out according to previously described procedures. HT-29/MTX and Caco-2 cells were seeded into 24-well plates at a density of 1 × 10^5 cells/well and 6 × 10^4 cells/well, respectively. After the cells adhered onto each well, the culture medium was discarded, and three types of samples (FITC-αCT, FITC-αCT-JNP, or FITC-αCT/Res-JNP) at 1:20 dilutions were added. After 6 h, the liquid in the wells was discarded, and the cells were washed with PBS. Each well was fixed with 4% (v/v) paraformaldehyde (0.5 mL) for 20 min, and rinsed with PBS. The cells were then incubated with 0.1% Triton X-100 for 10 min to permeabilize the cell membrane, and then incubated with DAPI for 10 min. After sealing, it was observed using CLSM.

[12] = test system: HT29/MTX cells; test: Cellular uptake of FITC-αCT observed by CLSM; format: cell-based; conditions: 6 h incubation, 1:20 dilution
Procedure: as §2

[13] = test system: animal models; conditions: cited from earlier work
[14] = Sprague-Dawley, rat, in vivo, po
[15] = PBS pH 7.4, time point not stated
[16] = rats, intragastric, 50 µg·kg^−1 as αCT, plasma FITC-αCT, n = 5

T1 sequence (P00761 9-231): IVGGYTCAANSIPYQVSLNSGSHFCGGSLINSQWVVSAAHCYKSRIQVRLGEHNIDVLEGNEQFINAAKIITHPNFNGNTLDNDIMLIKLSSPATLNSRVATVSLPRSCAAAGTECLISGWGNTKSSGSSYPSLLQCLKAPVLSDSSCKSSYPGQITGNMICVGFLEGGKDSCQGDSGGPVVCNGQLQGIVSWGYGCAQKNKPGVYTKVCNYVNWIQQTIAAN

Oc1ccc(/C=C/c2cc(O)cc(O)c2)cc1 [Res, Resveratrol]
oral bioavailability [1]: almost zero | cumulative transport [2]: approximately 14% | cumulative transport [3]: approximately 6% | cumulative transport of Res [4]: approximately 14% | AUC(0-t) [5, 14]: 84.6 ± 3.8 ng·h/mL | Cmax [5, 14]: 92.1 ± 8 ng/mL | MRT last [5, 14]: 1.56 ± 0.52 h | half-life [5, 14]: 1.09 ± 0.07 h | Tmax ([5]; Sprague-Dawley, rat, in vivo, po, time of peak concentration of Res, rats, intragastric): 0.167 h | AUMCt of Res ([5]; rats, intragastric, plasma Res, n = 5): 118.18 ± 19.08 ng/ml*h^2 | time after which Res was no longer detected in lymph [6]: 4 h | Ka of Res ([7]; colon): 1.01 ± 0.26 × 10^–2 min^−1 | Peff of Res ([7]; colon): 1.60 ± 0.44 × 10^–3 cm·min^−1 | Ka of Res ([7]; duodenum): 0.99 ± 0.11 × 10^–2 min^−1 | Peff of Res ([7]; duodenum): 1.58 ± 0.18 × 10^–3 cm·min^−1 | Ka of Res ([7]; ileum): 1.91 ± 0.66 × 10^–2 min^−1 | Peff of Res ([7]; ileum): 3.26 ± 1.26 × 10^–3 cm·min^−1 | Ka of Res ([7]; jejunum): 1.55 ± 0.26 × 10^–2 min^−1 | Peff of Res ([7]; jejunum): 2.57 ± 0.46 × 10^–3 cm·min^−1 | residual amount of Res [8]: 47.23% | release of Res in PBS [9, 15]: 86.71% | release rate of Res ([9]; SGF pH 1.2 with 2% sodium dodecyl sulfate, within 1 h): 93.76%

N=C(N)NC(=O)c1nc(Cl)c(N)nc1N [amiloride]
effect of endocytosis inhibitor on uptake rate of JNP by Caco-2 cells [10]: significantly reduced the uptake rate of JNP

CN(C)CCCN1c2ccccc2Sc2ccc(Cl)cc21 [chlorpromazine]
effect of endocytosis inhibitor on uptake rate of JNP by Caco-2 cells [10]: significantly reduced the uptake rate of JNP

O=c1c(-c2ccc(O)cc2)coc2cc(O)cc(O)c12 [genistein]
effect of endocytosis inhibitor on uptake rate of JNP by Caco-2 cells [10]: did not significantly inhibit the cellular uptake of JNP

COC(=O)Nc1nc2ccc(C(=O)c3cccs3)cc2[nH]1 [nocodazole]
effect of endocytosis inhibitor on uptake rate of JNP by Caco-2 cells [10]: did not significantly inhibit the cellular uptake of JNP

FITC-αCT: αCT labeled with fluorescein isothiocyanate (FITC)
cumulative transport [2]: approximately 4% | cumulative transport [3]: approximately 4% | cumulative transport of FITC-αCT [4]: approximately 3% | cellular uptake of FITC-αCT (green fluorescence, CLSM) [11]: no obvious green fluorescence | cellular uptake of FITC-αCT (green fluorescence, CLSM) [12]: no obvious green fluorescence

α-Cobrotoxin [αCT]
t1/2 of αCT ([5]; rats, intragastric): 0.17 ± 0.03 h | time of peak concentration of αCT ([5]; rats, intragastric): about 30 min | AUCt of αCT [5, 16]: 67.65 ± 17.91 ng·h/mL | AUMCt of αCT [5, 16]: 112.44 ± 12.97 ng/ml*h^2 | Cmax of αCT [5, 16]: 26.85 ± 3.00 ng/mL | Tmax of αCT [5, 16]: 0.5 h | t1/2β of αCT [5, 16]: 2.69 ± 0.36 h | time after which αCT was no longer detected in lymph [6]: 6 h | Ka of αCT ([7]; colon): 0.85 ± 0.14 × 10^–2 min^−1 | Peff of αCT ([7]; colon): 1.34 ± 0.23 × 10^–3 cm·min^−1 | Ka of αCT ([7]; duodenum): 0.81 ± 0.11 × 10^–2 min^−1 | Peff of αCT ([7]; duodenum): 1.27 ± 0.19 × 10^–3 cm·min^−1 | Ka of αCT ([7]; ileum): 0.91 ± 0.03 × 10^–2 min^−1 | Peff of αCT ([7]; ileum): 1.44 ± 0.05 × 10^–3 cm·min^−1 | Ka of αCT ([7]; jejunum): 0.98 ± 0.05 × 10^–2 min^−1 | Peff of αCT ([7]; jejunum): 1.56 ± 0.10 × 10^–3 cm·min^−1 | effect on pain sensitivity ([13]; high dose 100 μg·kg^−1, intraperitoneal injection): significantly enhance pain sensitivity | effect on pain threshold and action ability ([13]; low dose, animal models): improve the pain threshold and action ability | residual amount of αCT [8]: 25.60% | release of αCT in PBS [9, 15]: 67.89% | cumulative release of αCT ([9]; SGF pH 1.2, 2 h, 37 °C): approximately 40.17%
